Test results: patent US8772323B2, “Benzoxazole- and tetrahydrobenzoxazole-substituted pyridazinones as GPR119 agonists” (Boehringer Ingelheim International GmbH, priority 2010, dated 2014)

Target: human GPR119 (Homo sapiens (Human), UniProt Q8TDV5)
Experiment: AlphaScreen cAMP assay in Min-6/hGPR119 cells (GPR119 activation, intracellular cAMP)
Type: cell-based
Details: MIN6 cells stably transfected with human GPR119; 45 minutes' incubation at RT; AlphaScreen cAMP Assay Kit
Summary of the method: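 MIN6 cells stably expressing human GPR119 plated 10000 cells/well and held 24 h at 37° C. Compounds applied in stimulating buffer, pH 7.4, with 0.5 mM IBMX, 0.1% BSA, 1% DMSO final, for 45 min at RT. Intracellular cAMP read by AlphaScreen.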

Chain of human GPR119 (Q8TDV5 whole entry): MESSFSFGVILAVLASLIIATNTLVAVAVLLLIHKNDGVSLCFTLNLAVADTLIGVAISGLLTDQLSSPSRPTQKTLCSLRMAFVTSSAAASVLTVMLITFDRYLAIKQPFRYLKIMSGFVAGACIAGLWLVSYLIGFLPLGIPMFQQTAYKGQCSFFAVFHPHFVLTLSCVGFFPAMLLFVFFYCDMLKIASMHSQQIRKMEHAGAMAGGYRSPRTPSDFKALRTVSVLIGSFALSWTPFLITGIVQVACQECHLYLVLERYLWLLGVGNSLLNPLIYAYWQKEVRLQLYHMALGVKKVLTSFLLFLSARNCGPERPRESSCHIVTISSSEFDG

Structure (SMILES)	EC50 [µM]
CCC1CC(=O)NN=C1c1ccc2nc(-c3cccc(OC(C)CN4CCCCC4)c3)oc2c1 (stereo not shown) [Example 230, 5-ethyl-6-{2-[3-(1-methyl-2-piperidin-1-yl-ethoxy)-phenyl]-benzoxazol-6-yl}-4,5-dihydro-2H-pyridazin-3-one]	1.19
CCC[C@H]1C(=O)NN=C(c2ccc3nc(-c4ccsc4)oc3c2)[C@@H]1C (relative stereo) [Example 187, trans-5-methyl-4-propyl-6-(2-thiophen-3-yl-benzoxazol-6-yl)-4,5-dihydro-2H-pyridazin-3-one]	0.173
CC(C)(C)OC(=O)N1CCN(Cc2ccc(-c3nc4ccc(C5=NNC(=O)C6CC56)cc4o3)cc2)CC1 (stereo not shown) [Example 23, tert.butyl 4-{4-[6-(5-oxo-3,4-diaza-bicyclo[4.1.0]hept-2-en-2-yl)-benzoxazol-2-yl]-benzyl}-piperazine-1-carboxylate]	1.35
O=C1CCC(c2ccc3nc(N4CCCCC4)oc3c2)=NN1 [Example 118, 6-(2-piperidin-1-yl-benzoxazol-6-yl)-4,5-dihydro-2H-pyridazin-3-one]	3.74
O=C1NN=C(c2ccc3nc(-c4ccc(CN5CCCCC5)cc4)oc3c2)C2CC12 (stereo not shown) [Example 15, 5-[2-(4-piperidin-1-ylmethyl-phenyl)-benoxazol-6-yl]-3,4-diaza-bicyclo[4.1.0]hept-4-en-2-one]	0.701
CC[C@H]1C(c2ccc3nc(-c4ccccc4)oc3c2)=NNC(=O)[C@@H]1C [Example 147, (4R,5R)-5-ethyl-4-methyl-6-(2-phenyl-1,3-benzoxazol-6-yl)-2,3,4,5-tetrahydropyridazin-3-one]	0.079
CCC1SC(=O)NN=C1c1ccc2nc(-c3ccccc3)oc2c1 (stereo not shown) [Example 77, 6-ethyl-5-(2-phenyl-benzoxazol-6-yl)-3,6-dihydro-[1,3,4]thiadiazin-2-one]	0.141
CCC1CC(=O)NN=C1c1ccc2nc(-c3cccc(OCCN(CC(C)C)CC(C)C)c3)oc2c1 (stereo not shown) [Example 156, 6-{2-[3-(2-diisobutylamino-ethoxy)-phenyl]-benzoxazol-6-yl}-5-ethyl-4,5-dihydro-2H-pyridazin-3-one]	0.248
CCC1CC(=O)NN=C1c1ccc2nc(-c3ccc(OC4CCN(C(=O)OC(C)(C)C)CC4)cc3)oc2c1 (stereo not shown) [Example 68, tert-butyl 4-{4-[6-(4-ethyl-6-oxo-1,4,5,6-tetrahydro-pyridazin-3-yl)-benzoxazol-2-yl]-phenoxy}-piperidin-1-carboxylate]	0.06
CC1CC(=O)NN=C1c1ccc2nc(-c3ccc(Cl)cc3)oc2c1 (stereo not shown) [Example 84, 6-[2-(4-chloro-phenyl)-benzoxazol-6-yl]-5-methyl-4,5-dihydro-2H-pyridazin-3-one]	0.132
CCC1OC(=O)NN=C1c1ccc2nc(-c3ccccc3)oc2c1 (stereo not shown) [Example 78, 6-ethyl-5-(2-phenyl-benzoxazol-6-yl)-3,6-dihydro-[1,3,4]oxadiazin-2-one]	0.061
O=C1NN=C(c2ccc3nc(-c4ccc(OCCN5CCOCC5)cc4)oc3c2)C2CC12 (stereo not shown) [Example 137, 5-{2-[4-(2-morpholin-4-yl-ethoxy)-phenyl]-benzoxazol-6-yl}-3,4-diaza-bicyclo[4.1.0]hept-4-en-2-one]	0.497
C[C@@H]1CC(=O)NN=C1c1ccc2nc(-c3ccccc3)oc2c1 [Example 3, (R)-5-methyl-6-(2-phenyl-benzoxazol-6-yl)-4,5-dihydro-2H-pyridazin-3-one]	0.082
CCC[C@H]1C(=O)NN=C(c2ccc3nc(-c4ccc(OCCN(C(C)C)C(C)C)cc4)oc3c2)[C@H]1C (relative stereo) [Example 169, cis-6-{2-[4-(2-diisopropylamino-ethoxy)-phenyl]-benzoxazol-6-yl}-5-methyl-4-propyl-4,5-dihydro-2H-pyridazin-3-one]	1.03
CCC1NC(=O)NN=C1c1ccc2nc(-c3ccccc3)oc2c1 (stereo not shown) [Example 144, 5-ethyl-6-(2-phenyl-benzoxazol-6-yl)-4,5-dihydro-2H-[1,2,4]triazin-3-one]	0.987
CCC1CC(=O)NN=C1c1ccc2nc(-c3cccc(OCCN4CCN(C(C)CC)CC4)c3)oc2c1 (stereo not shown) [Example 157, 6-(2-{3-[2-(4-sec-butyl-piperazin-1-yl)-ethoxy]-phenyl}-benzoxazol-6-yl)-5-ethyl-4,5-dihydro-2H-pyridazin-3-one]	2.03
CCC1CC(=O)NN=C1c1ccc2nc(-c3ccc(O[C@H]4CCC[C@@H]4N4CCCCC4)cc3)oc2c1 (relative stereo) [Example 225, 5-ethyl-6-{2-[4-(trans-2-piperidin-1-yl-cyclopentyloxy)-phenyl]-benzoxazol-6-yl}-4,5-dihydro-2H-pyridazin-3-one]	0.231
O=C1NN=C(N2CCc3nc(-c4ccccc4)oc3C2)C2CC12 (stereo not shown) [Example 135, 5-(2-phenyl-4,5,6,7-tetrahydro-4H-oxazolo[5,4-c]pyridin-5-yl)-3,4-diaza-bicyclo[4.1.0]hept-4-en-2-one]	0.391
O=C1CCC(c2ccc3nc(-c4ccco4)oc3c2)=NN1 [Example 112, 6-(2-furan-2-yl-benzoxazol-6-yl)-4,5-dihydro-2H-pyridazin-3-one]	1.32
O=C1CCC(c2ccc3nc(-c4cccs4)oc3c2)=NN1 [Example 111, 6-(2-thiophen-2-yl-benzoxazol-6-yl)-4,5-dihydro-2H-pyridazin-3-one]	0.967

Continued, values first:

EC50 [µM]	Structure (SMILES)
0.549	CCC1CC(=O)NN=C1c1ccc2nc(-c3ccc(OC(C)(C)CN4CCCC4)cc3)oc2c1 (stereo not shown) [Example 228, 6-{2-[4-(1,1-dimethyl-2-pyrrolidin-1-yl-ethoxy)-phenyl]-benzoxazol-6-yl}-5-ethyl-4,5-dihydro-2H-pyridazin-3-one]
0.345	CCC1CC(=O)NN=C1c1ccc2nc(-c3ccc(OCc4ccncc4)cc3)oc2c1 (stereo not shown) [Example 46, 5-ethyl-6-{2-[4-(pyridin-4-ylmethoxy)-phenyl]-benzoxazol-6-yl}-4,5-dihydro-2H-pyridazin-3-one]
0.07	CCC1CC(=O)NN=C1c1ccc2nc(-c3ccc(OCc4ccccc4)cc3)oc2c1 (stereo not shown) [Example 33, 6-[2-(4-benzyloxy-phenyl)-benzoxazol-6-yl]-5-ethyl-4,5-dihydro-2H-pyridazin-3-one]
0.058	CCCN(CCOc1ccc(-c2nc3ccc(C4=NNC(=O)CC4CC)cc3o2)cc1)C(C)C (stereo not shown) [Example 249, 5-ethyl-6-(2-{4-[2-(isopropyl-propyl-amino)-ethoxy]-phenyl}-benzoxazol-6-yl)-4,5-dihydro-2H-pyridazin-3-one]
0.296	CCC1CC(=O)NN=C1c1ccc2nc(-c3ccc(OC[C@@H]4CCCN4C)cc3)oc2c1 (stereo partly shown) [Example 242, 5-ethyl-6-{2-[4-(1-methyl-S-pyrrolidin-2-yl-methoxy)-phenyl]-benzoxazol-6-yl}-4,5-dihydro-2H-pyridazin-3-one]
0.442	CCC1CC(=O)NN=C1c1ccc2nc(-c3cccc(OC(C)C)c3)oc2c1 (stereo not shown) [Example 100, 5-ethyl-6-[2-(3-isopropoxy-phenyl)-benzoxazol-6-yl]-4,5-dihydro-2H-pyridazin-3-one]
0.275	CCC1CC(=O)NN=C1c1ccc2nc(-c3ccc(OCc4ncccn4)cc3)oc2c1 (stereo not shown) [Example 40, 5-ethyl-6-{2-[4-(pyrimidin-2-ylmethoxy)-phenyl]-benzoxazol-6-yl}-4,5-dihydro-2H-pyridazin-3-one]
0.058	CC1CC(=O)NN=C1c1ccc2nc(-c3ccc(OCc4ccccc4)cc3)oc2c1 (stereo not shown) [Example 36, 6-[2-(4-benzyloxy-phenyl)-benzoxazol-6-yl]-5-methyl-4,5-dihydro-2H-pyridazin-3-one]
0.299	CCC1CC(=O)NN=C1c1ccc2nc(-c3ccc(OCCN(CC)CC)cc3)oc2c1 (stereo not shown) [Example 222, 6-{2-[4-(2-diethylamino-ethoxy)-phenyl]-benzoxazol-6-yl}-5-ethyl-4,5-dihydro-2H-pyridazin-3-one]
0.054	CCC1CC(=O)NN=C1c1ccc2nc(-c3ccc(OCCN4C[C@@H](C)O[C@@H](C)C4)cc3)oc2c1 (stereo partly drawn) [Example 246, 6-(2-{4-[2-(cis-2,6-dimethyl-morpholin-4-yl)-ethoxy]-phenyl}-benzoxazol-6-yl)-5-ethyl-4,5-dihydro-2H-pyridazin-3-one]
0.395	CCC1CC(=O)NN=C1c1ccc2nc(-c3ccc(OCC(C)O)cc3)oc2c1 (stereo not shown) [Example 211, 5-ethyl-6-{2-[4-(2-hydroxy-propoxy)-phenyl]-benzoxazol-6-yl}-4,5-dihydro-2H-pyridazin-3-one]
0.438	CCC1CC(=O)NN=C1c1ccc2nc(-c3ccc(OCCN(C)C(C)C)cc3)oc2c1 (stereo not shown) [Example 219, 5-ethyl-6-(2-{4-[2-(isopropyl-methyl-amino)-ethoxy]-phenyl}-benzoxazol-6-yl)-4,5-dihydro-2H-pyridazin-3-one]
3.01	CCC1CC(=O)NN=C1c1ccc2nc(-c3ccc(OCCN4CCN(C(C)C)CC4)cc3)oc2c1 (stereo not shown) [Example 168, 5-ethyl-6-(2-{4-[2-(4-isopropyl-piperazin-1-yl)-ethoxy]-phenyl}-benzoxazol-6-yl)-4,5-dihydro-2H-pyridazin-3-one]
1.03	CCC1CC(=O)NN=C1c1ccc2nc(-c3ccc(OCCN4CCCC4=O)cc3)oc2c1 (stereo not shown) [Example 167, 5-ethyl-6-(2-{4-[2-(2-oxo-pyrrolidin-1-yl)-ethoxy]-phenyl}-benzoxazol-6-yl)-4,5-dihydro-2H-pyridazin-3-one]
0.462	CCC1CC(=O)NN=C1c1ccc2nc(-c3ccc(C(C)C)cc3)oc2c1 (stereo not shown) [Example 175, 5-ethyl-6-[2-(4-isopropyl-phenyl)-benzoxazol-6-yl]-4,5-dihydro-2H-pyridazin-3-one]
0.037	CCC1CC(=O)NN=C1c1ccc2nc(-c3ccc(OCCN(C(C)C)C(C)C)cc3)oc2c1 (stereo not shown) [Example 57, 6-{2-[4-(2-diisopropylamino-ethoxy)-phenyl]-benzoxazol-6-yl}-5-ethyl-4,5-dihydro-2H-pyridazin-3-one]
0.084	CCC1CC(=O)NN=C1c1ccc2nc(-c3ccc(OCCN4CC(C)OC(C)C4)cc3)oc2c1 (stereo not shown) [Example 220, 6-(2-{4-[2-(2,6-dimethyl-morpholin-4-yl)-ethoxy]-phenyl}-benzoxazol-6-yl)-5-ethyl-4,5-dihydro-2H-pyridazin-3-one]
